Assay results taken from PubChem BioAssay AID179 (DTP/NCI, 2004).
The source made the active and inactive calls.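 How the source made its calls: active means compounds giving half or more protection of infected cells from virus-caused growth loss, again on retest; inactive means the rest.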 Where a SMILES comes first, the peptide text is derived from it.

System: CEM cells HIV-1 protection, formazan growth assay
Assay: NCI AIDS Antiviral Assay
Settings: for IC50: measured here: growth of uninfected CEM cells
In short: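 Soluble formazan readout of cell growth; CEM cells ± HIV-1; 5 drug concs. ≥50% protection → retest; ≥50% again = moderately active; reproducible 100% = confirmed active.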

Compound: C[C@H](CCC1=NCCN1)[C@H]1CC[C@H]2[C@@H]3CC[C@@H]4C[C@H](O)CC[C@]4(C)[C@H]3C[C@H](O)[C@]12C
- EC50: > 200 µM
- IC50: 11.5 µM

Compound: COC(=O)c1onc(-c2c(OC)cc(OC)cc2OC)c1C(=O)OC
- EC50: > 141 µM
- IC50: 115 µM

Compound: COc1ccc(C2C3=C(N=C4SC(C(C)=O)=C(C)N42)c2ccccc2CC3)cc1 (stereo not given)
- EC50: > 200 µM
- IC50: 17.4 µM

Compound: O=c1sc(Nc2ccc3ccccc3c2Cl)nc2ccccc12
- EC50: > 200 µM
- IC50: > 200 µM

Compound: O=C(Oc1ccccc1)C(c1ccccc1)c1ccccc1
- EC50: > 102 µM
- IC50: > 102 µM

Compound: CCCCCCCCCCCCCCCCOC(=O)c1cc(O)cc(C(=O)OCCCCCCCCCCCCCCCC)c1
- outcome: inactive

Compound: Cc1ccnc(NC(NC(=O)c2ccccc2)(C(F)(F)F)C(F)(F)F)c1
- outcome: inactive

Compound: O=c1[nH]c(-c2ccccc2)nc2ccc(Cl)cc12
- outcome: inactive

Compound: CO[C@@H]1C2C3c4ccccc4C(c4ccccc43)C2[C@H](OC)[C@H]2OC(c3ccccc3)O[C@H]21 (stereo not given in full)
- EC50: > 67.6 µM
- IC50: > 67.6 µM

Compound: O=c1n(-c2ccccc2)c(=O)n2n1C1Cc3ccccc3C12 (stereo not given)
- outcome: inactive

Compound: Cc1ncc([N+](=O)[O-])n1CCNCCCn1ccnc1[N+](=O)[O-]
- EC50: > 200 µM
- IC50: > 200 µM

Compound: COc1c2c(c(Cl)c3ccc(=O)oc13)CCO2
- EC50: > 70.8 µM
- IC50: > 70.8 µM

Compound: O=C(OC[C@H]1OCC(=O)[C@@]2(OC(=O)c3ccccc3)[C@@H]1[C@H]1C=C[C@@H]2C1)c1ccccc1
- outcome: inactive

Compound: COc1cc(/C=C2\CCC(C)C3C2=NN(C(C)=O)C3c2cc(OC)c(OC)c(OC)c2)cc(OC)c1OC (stereo not given)
- EC50: > 100 µM
- IC50: > 100 µM

Compound: Nc1ccc(S(=O)(=O)NC(CSSCC(NS(=O)(=O)c2ccc(N)cc2)C(=O)O)C(=O)O)cc1 (stereo not given)
- EC50: > 200 µM
- IC50: > 200 µM

Compound: COc1ccc2c(c1)N(S(=O)(=O)c1ccc(C)cc1)CC1=C2CCP1(C)=O (stereo not given)
- outcome: inactive

Compound: C[PH+](C)C.C[PH+](C)C.[C-]#[O+].[C-]#[O+].[C-]#[O+].[Fe]
- EC50: > 200 µM
- IC50: 49 µM

Compound: CC(C)=CCC[C@@H](C)C1=C(O)C(O)C(C)=C2N=C(c3ccccc3)C(=O)OC21 (stereo not given in full)
- EC50: > 200 µM
- IC50: 3.8 µM

Compound: Cc1cn(C2CC(N=[N+]=[N-])C(COC(=O)CCCCCCCCCCCF)O2)c(=O)[nH]c1=O (stereo not given)
- EC50: 0.162 µM
- IC50: 2 µM

Compound: COc1ccc(Cl)c2c1[nH]c1nc3nc4cc(Cl)ccc4n3nc12
- EC50: > 100 µM
- IC50: > 100 µM

Compound: CCOC(=O)C1=CNc2ccccc2N=C1N
- EC50: > 200 µM
- IC50: 34.7 µM

Compound: NC1=N/N=C(c2ccccc2)\C=C/C(c2ccccc2)=N\1
- EC50: > 19.1 µM
- IC50: > 19.1 µM

Compound: CC1(c2ccc(Cl)cc2)OC(=O)c2c1ccc1ccccc21 (stereo not given)
- outcome: inactive

Compound: O=S(=O)(CC#CCO)c1c2ccccc2cc2ccccc12
- outcome: inactive

Compound: COc1ccccc1NC(=O)C1=C(C)NC(C)=C(C(=O)Nc2ccccc2OC)C1c1ccc(N(C)C)cc1
- EC50: > 42.7 µM
- IC50: 29.5 µM

Compound: CC(C)C1COC(C(C)(C)C2=N[C@@H](C(C)C)CO2)=N1 (stereo not given in full)
- EC50: > 251 µM
- IC50: 135 µM

Compound: CC1(C)CC2(C)CC1CC2(O)c1ccccc1 (stereo not given)
- EC50: > 219 µM
- IC50: 61.7 µM

Compound: C[Si](C)(C)/C(Br)=C\CCN1C(=O)CCC1O (stereo not given)
- outcome: inactive

Compound: Nc1ccn(C2CC(F)C(CO)S2)c(=O)n1 (stereo not given)
- EC50: > 25.1 µM
- IC50: > 25.1 µM

Compound: CCOC(=O)c1c(-c2ccc(OC)cc2)ccn1C
- EC50: > 200 µM
- IC50: 28.8 µM

Compound: CC(C)CC(NC(=O)C(Cc1ccc(O)cc1)NC(=O)C(CO)NC(=O)C(N)CCC(=O)O)C(=O)NCC(=O)O (stereo not given) (H-ESYLG-OH; configuration not given here)
- outcome: inactive

Compound: O=C(NCCCN1CCN(CCCNC(=O)c2cc(-c3ccccc3)nc3ccccc23)CC1)c1cc(-c2ccccc2)nc2ccccc12
- EC50: > 20 µM
- IC50: 2.4 µM

Compound: O=P(N1CC1)(N1CC1)N1CCN(P(=O)(N2CC2)N2CC2)CC1
- EC50: > 200 µM
- IC50: 2.24 µM

Compound: Cc1cccc(C)c1NC(=S)N/C=C(\C#N)C(N)=O
- EC50: > 200 µM
- IC50: > 200 µM

Compound: COc1cc2c(cc1O)C1Cc3cc(O)c(OC)cc3C(C2)N1C (stereo not given)
- EC50: > 759 µM
- IC50: 49 µM

Compound: Cc1nnc(N)nc1/C=C/c1c(O)ccc2ccccc12
- EC50: > 200 µM
- IC50: 26.3 µM

Compound: O=C1c2c(Br)sc(Br)c2[C@@H](NC(=O)C(F)(F)F)C1Br (stereo not given in full)
- EC50: > 200 µM
- IC50: 3.8 µM

Compound: Cc1ccccc1C1(Br)C(=O)c2ccccc2C1=O
- EC50: > 200 µM
- IC50: 33.9 µM

Compound: COc1ccc2oc(=N)c(C(=O)NCc3ccccc3)cc2c1
- EC50: > 200 µM
- IC50: 17.8 µM

Compound: O=[N+]([O-])c1ccc2c(c1)c(OCc1ccccc1)nn2Cc1ccccc1
- EC50: > 200 µM
- IC50: 95.5 µM

Compound: O=C(O)c1cc(OS(=O)(=O)O)c(OS(=O)(=O)O)c(OS(=O)(=O)O)c1
- EC50: > 200 µM
- IC50: 11.2 µM

Compound: CCOC(=O)C(C)P(=O)(OC)OC (stereo not given)
- EC50: > 200 µM
- IC50: > 200 µM

Compound: NC1=CNC(=O)C1
- EC50: > 138 µM
- IC50: > 138 µM

Compound: C(/C=C/c1ccccc1)=Nc1ccc(CCc2ccc(N=C/C=C/c3ccccc3)cc2)cc1
- EC50: > 1.23 µM
- IC50: > 1.23 µM

Compound: Nc1cc(N)c(N=Nc2ccc(/C=C/c3ccc(N=Nc4c(N)cc(N)cc4C(=O)O)cc3S(=O)(=O)O)c(S(=O)(=O)O)c2)c(C(=O)O)c1
- EC50: > 178 µM
- IC50: 170 µM

Compound: CCc1cccc(CC)c1NC(=O)C1=CNC(C)=C(C(=O)Nc2c(CC)cccc2CC)C1c1ccc(O)c(OC)c1 (stereo not given)
- EC50: > 63.1 µM
- IC50: 49 µM

Compound: CC(C)CC(NC(=O)C(Cc1ccc(O)cc1)NC(=O)C(CO)NC(=O)C(N)CCC(N)=O)C(=O)NCC(=O)O (stereo not given) (H-QSYLG-OH; configuration not given here)
- outcome: inactive

Compound: CC1CCC(=NNS(=O)(=O)c2ccc(N)cc2)CC1 (stereo not given)
- EC50: > 129 µM
- IC50: > 129 µM

Compound: S=P(c1ccccc1)(c1ccccc1)C1(C2(P(=S)(c3ccccc3)c3ccccc3)CC2)CC1
- EC50: > 10 µM
- IC50: > 10 µM

Compound: Cc1ccc2sc3cc(=O)cc(C)c-3nc2c1
- EC50: > 10.7 µM
- IC50: > 10.7 µM

Compound: O=C1CCC(=O)Nc2ccccc2-c2ccccc2N1
- outcome: inactive

Compound: CCOC(=O)/C=C1\CCC(C)n2c1nccc2=O (stereo not given)
- EC50: > 200 µM
- IC50: 110 µM

Compound: COC(=O)c1c[nH]c2c1-c1cc(C(=O)OCc3ccccc3)n(S(=O)(=O)c3ccc(C)cc3)c1C(=O)C2=O
- EC50: > 200 µM
- IC50: 3.72 µM

Compound: Cc1ccc(S(=O)(=O)c2ccccc2[N+](=O)[O-])cc1
- EC50: 14.5 µM
- IC50: 81.3 µM

Compound: CCC[CH2][Sn]([CH2]CCC)([O]C(=O)c1cccc(F)c1F)[O]C(=O)c1cccc(F)c1F
- EC50: > 9.55 µM
- IC50: 3.55 µM

Compound: Nc1ccc(SCc2ccc(C(=O)O)cc2)cc1
- EC50: > 28.2 µM
- IC50: > 28.2 µM

Compound: NC(CO)C(=O)NC(CO)C(=O)NC(Cc1ccc(O)cc1)C(=O)NC(CO)C(=O)NC(CO)C(=O)O (stereo not given) (H-SSYSS-OH; configuration not given here)
- EC50: > 93.3 µM
- IC50: > 93.3 µM

Compound: Cc1nc(-c2nc(C)c(C(=O)NN(C)C)s2)sc1C(=O)NN(C)C
- EC50: > 70.8 µM
- IC50: > 70.8 µM

Compound: Cc1cc(=O)oc2c(CNC(C(=O)O)C(C)O)c(O)ccc12 (stereo not given)
- EC50: > 200 µM
- IC50: > 200 µM

Compound: Cc1ccc(/C=C/C(=O)C(C)C)cc1
- EC50: > 200 µM
- IC50: 70.8 µM

Compound: CC(C)OP(=O)(OC(C)C)C(=Nc1ccc(N=C(NNc2ccc([N+](=O)[O-])cc2)P(=O)(OC(C)C)OC(C)C)cc1)NNc1ccc([N+](=O)[O-])cc1
- EC50: > 3.55 µM
- IC50: > 3.55 µM

Compound: O=C(O)/C(Cl)=C(\Cl)C(=O)c1ccccc1
- EC50: > 1020 µM
- IC50: > 1020 µM

Compound: CCCC(CCC(=O)O)(CCC(=O)O)[N+](=O)[O-]
- outcome: inactive

Compound: COC(=O)c1c(CC(=O)O)oc2c1CCCC2
- outcome: inactive

Compound: c1ccc2c(c1)cnc1c3ccccc3nn21
- EC50: > 17.4 µM
- IC50: > 17.4 µM

Compound: CCOC(=O)/N=C(\N)SCc1ccccc1
- outcome: inactive

Compound: O=C1C2=Cc3ccccc3OC2(O)Oc2ccccc21 (stereo not given)
- EC50: > 200 µM
- IC50: 23.4 µM

Compound: COc1ccc(C2CCC(=O)CC2C(=O)O)cc1 (stereo not given)
- EC50: > 417 µM
- IC50: > 417 µM

Compound: N#C/C(=C/c1ccsc1)C(=O)c1ccccc1
- EC50: > 110 µM
- IC50: > 110 µM

Compound: S=C(NCCSSCCNC(=S)Nc1ccccc1)Nc1ccccc1
- EC50: > 200 µM
- IC50: 35.5 µM

Compound: CC1C(O)O[C@@H]2O[C@@]3(C)CC[C@H]4[C@H](C)CC[C@@H]1[C@@]24O3 (stereo not given in full)
- EC50: > 200 µM
- IC50: > 200 µM

Compound: COc1cc2nc(CCc3nc4cc(OC)c(OC)cc4[nH]3)[nH]c2cc1OC
- EC50: > 17 µM
- IC50: 12.3 µM

Compound: Cc1cc(C)cc(NC(N)=S)c1
- EC50: > 1000 µM
- IC50: > 1000 µM

Compound: CC(=O)N1C=Cc2c(c(C)c3c([nH]c4ccccc43)c2C)C1
- EC50: > 200 µM
- IC50: 0.158 µM

Compound: CC(=O)/C(=C/n1c(=S)sc2ccccc21)C(=O)Nc1ccccc1
- EC50: > 200 µM
- IC50: 138 µM

Compound: O=c1cnn(C2OC(CO)C(O)C2O)c(=S)[nH]1 (stereo not given)
- EC50: > 2 µM
- IC50: 0.182 µM

Compound: O=CC(O)C(O)C(O)C(O)CON1C[C@@H](O)C(O)[C@@H](O)C1 (stereo not given in full)
- EC50: > 200 µM
- IC50: > 200 µM

Compound: O=C(/C=C(/SS/C(=C/C(=O)c1ccccc1)c1ccccc1)c1ccccc1)c1ccccc1
- EC50: > 200 µM
- IC50: 2.51 µM

Compound: CN(CCC(N)CC(=O)NC1C=CC(n2ccc(N)nc2=O)OC1C(=O)O)C(=N)N (stereo not given)
- EC50: > 200 µM
- outcome: inactive
- IC50: 31.6 µM

Compound: O=C1c2ccccc2C(=O)C12CCc1ccccc12
- outcome: inactive

Compound: O=C(Cc1ccccc1)NN1C(=O)C(Cl)C1c1ccccc1Cl (stereo not given)
- EC50: > 28.8 µM
- IC50: > 28.8 µM

Compound: CC1=C(C(=O)Nc2ccccc2)C2(CCCCC2)C(C#N)=C(SCC(=O)Nc2ccc(Br)cc2)N1
- EC50: > 200 µM
- IC50: 12.3 µM

Compound: CC(=O)OCC(C)(COC(C)=O)N1C(=O)C2C3c4ccccc4C(c4ccccc43)C2C1=O (stereo not given)
- EC50: > 200 µM
- IC50: > 200 µM

Compound: COc1cc(/C=C(\NC(=O)c2ccccc2)c2nc3[nH]c(=S)[nH]c(=O)c3[nH]2)cc(OC)c1OC
- outcome: inactive

Compound: Nc1ccc(N=Nc2ccc(N=Nc3ccc(N=Nc4cc(S(=O)(=O)O)c5ccccc5c4O)c4ccc(S(=O)(=O)O)cc34)c3ccc(S(=O)(=O)O)cc23)cc1
- outcome: active

Compound: CC#CCCCC1(C)CCCNC1=S (stereo not given)
- EC50: > 200 µM
- IC50: > 200 µM
